These results are taken from patent US9879013B2, “Purinone derivative” (ONO PHARMACEUTICAL CO., LTD., priority 2010, dated 2018).

Each structure is given as a SMILES string.

In one series the target is Human CYP2C19 (Homo sapiens (Human), UniProt P33261). Nature of the series: Inhibitory action on human CYP2C19. Format: in vitro ADME. The procedure: Measurement of the Inhibitory Activity on Drug-Metabolizing Enzymes (Inhibitory Action on Human CYP2C8 and Human CYP2C19)
The reaction was carried out in a 96-well plate. The positive control substances (CYP2C8: ketoconazole, CYP2C19: tranylcypromine) were adjusted (CYP2C8: 0.6 and 6 mmol/L, CYP2C19: 0.9 and 9 mmol/L) with DMSO to concentrations that were 300 times the final concentration, and solutions were prepared (CYP2C8: 8 and 80 μmol/L, CYP2C19: 12 and 120 μmol/L) by 75× dilution with purified water that contained 2.7% acetonitrile. The test compounds were adjusted to […] with DMSO and were adjusted to 4 and 40 μmol/L by 75× dilution with purified water that contained 2.7% acetonitrile. A reaction mixture was then prepared (the numerical values are final concentrations) by the addition of potassium phosphate buffer (pH 7.4), magnesium chloride ([…]), substrate (CYP2C8: dibenzylfluorescein 1 μmol/L, CYP2C19: 3-cyano-7-ethoxycoumarin 25 μmol/L), and E. coli-expressed liver microsome CYP2C8 (Cypex, 10 pmol/L) and CYP2C19 (Cypex, 3 pmol/L). 100 μL of this reaction mixture and 50 μL of the test compound prepared as described above and the positive control solution prepared as described above were dispensed into each well and pre-incubation was carried out at 10 minutes for 37° C. The reaction was started by the addition of 50 μL NADPH solution (final concentration=1 mmol/L) and incubation was carried out for 30 minutes at 37° C. The fluorescence intensity was measured (CYP2C8: excitation wavelength=485 nm, fluorescence wavelength=538 nm; CYP2C19: excitation wavelength=409 nm, fluorescence wavelength=460 nm) immediately after the addition of the NADPH and after incubation for 30 minutes.

The target in the next series is Btk (Homo sapiens (Human), UniProt Q06187). The experiment in a line: Btk enzyme inhibitory activity (Z'-LYTE Kinase Assay Kit-Tyr1 peptide). It counts as biochemical. The settings on record: Tyr-1 peptide 4 μM, Btk 5 nM, ATP 36 μM, 1 hour at 30° C. The procedure: The Btk enzyme inhibitory activity was measured, based on the protocol provided by the manufacturer, using Btk (Invitrogen Corporation) and the Z′-LYTE® Kinase Assay Kit-Tyr1 peptide (Invitrogen Corporation), which contained the following reagents: Tyr-1 peptide, Thy-1 phosphopeptide, 5× kinase buffer, ATP, development reagent B, development buffer, and stop reagent.
Btk, sequence (Q06187 whole entry): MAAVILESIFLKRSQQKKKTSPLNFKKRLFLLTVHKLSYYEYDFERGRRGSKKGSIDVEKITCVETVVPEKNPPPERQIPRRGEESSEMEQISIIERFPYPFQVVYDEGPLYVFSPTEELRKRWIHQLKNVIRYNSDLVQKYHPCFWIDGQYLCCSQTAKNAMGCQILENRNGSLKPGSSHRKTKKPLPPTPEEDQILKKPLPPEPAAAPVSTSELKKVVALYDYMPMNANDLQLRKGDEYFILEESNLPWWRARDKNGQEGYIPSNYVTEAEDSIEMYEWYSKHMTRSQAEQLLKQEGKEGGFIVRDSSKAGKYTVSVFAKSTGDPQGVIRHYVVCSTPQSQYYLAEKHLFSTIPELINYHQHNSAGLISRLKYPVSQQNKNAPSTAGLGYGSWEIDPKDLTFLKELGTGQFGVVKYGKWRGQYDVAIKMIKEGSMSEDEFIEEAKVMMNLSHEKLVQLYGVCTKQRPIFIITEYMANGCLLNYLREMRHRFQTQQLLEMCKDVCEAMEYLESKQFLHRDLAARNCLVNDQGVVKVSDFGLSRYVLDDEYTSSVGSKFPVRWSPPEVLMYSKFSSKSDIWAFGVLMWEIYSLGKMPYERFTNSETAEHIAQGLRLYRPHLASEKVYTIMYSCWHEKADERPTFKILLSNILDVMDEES
5 μL/well of a solution of the test compound diluted with dimethyl sulfoxide (DMSO), or DMSO, and 10 μL/well of the substrate/enzyme mixture solution were dispensed to a 96-well assay plate and a reaction was carried out for 20 minutes at 30° C. […] The enzymatic reaction was then stopped by adding 10 μL of the stop solution.
The percent inhibition (%) by the test compound was calculated using the following equation. percent inhibition (%) of phosphorylation=1−{(AC−AX)/(AC−AB)}×100 [E1]

Series [1] can be described thus: Stability in the rat liver microsome. The settings on record: 0.5 mg/mL microsomes, NADPH, 15 minutes at 37° C. On the technique in general: Microsomes from liver hold many membrane-bound enzymes, among them those of drug oxidation.
Experimental: Evaluation of the Stability in the Rat and Human Liver Microsome
A 0.25 mmol/L solution was prepared by diluting the test compound (10 mmol/L DMSO solution, 5 μL) with an aqueous 50% acetonitrile solution (195 μL).
20 μL was collected immediately after the start and the reaction was stopped by the addition to 180 μL of acetonitrile that contained an internal standard (warfarin). 20 μL of this solution was stirred with 180 μL of an aqueous 50% acetonitrile solution on a filter plate for protein depletion followed by suction filtration, and the filtrate was used as the standard sample.
The previously indicated reaction solution was incubated for 15 minutes at 37° C., and 20 μL was then added to 180 μL cold acetonitrile (contained the internal standard warfarin) to stop the reaction. 20 μL of this was stirred with 180 μL of an aqueous 50% acetonitrile solution on a filter plate for protein depletion followed by suction filtration, and the filtrate was used as the standard sample.
A further series addresses Lck (Homo sapiens (Human), UniProt P06239). Nature of the series: Lck inhibitory activity, selectivity for Btk (Z'-LYTE kinase assay). Format: biochemical. The settings on record: ratio of the IC50 values of the individual kinases. As for the experimental part:
The inhibitory activity for other kinases (for example, Lck, Fyn, and LynA (all from Invitrogen Corporation) was measured in the same manner as described above using the particular kinase in place of the Btk.

The subject of series [2] is B cells (CD20-positive CD3-negative cells) of human PBMC. The experiment in a line: B cell activation using human PBMC (CD69-positive signal, FACS). Format: cell-based. The settings on record: anti-IgM antibody 1 μg/mL / IL-4 3 ng/mL, 22 hours. The procedure: Measurement of B Cell Activation or T Cell Activation Using Human PBMC
A 10 mmol/L solution of the test compound in DMSO was dispensed into a 96-well plate (Nunc) and a 5× dilution series was prepared using DMSO. A 100× concentration test compound dilution solution was prepared by an additional 10× dilution with RPMI1640 medium (contained 10% HI-FBS, 1% penicillin). Human peripheral blood mononuclear cells (PBMC) were diluted with the medium to provide a density of 2×10^6 cells/mL. 396 μL of the cell suspension was added to a 96-well plate into which 4 μL of the 100× concentration test compound dilution solution or the solvent (10% DMSO) had already been introduced and incubation was performed for 10 minutes at 37° C. and 5% CO2. 10 μL of an anti-IgM antibody (Southern Biotech)/IL-4 (R & D Systems) solution or an anti-CD3/CD28 antibody bead suspension (Invitrogen Corporation) was added to a 96-well plate and 90 μL of the cell suspension prepared as described above was also added (final concentrations: anti-IgM antibody=1 μg/mL, IL-4=3 ng/mL, and anti-CD3/CD28 antibody beads=2×10^6 beads/mL). 10 μL of the medium was added to the unstimulated sample wells in place of these stimulating substances, and standing at 37° C. and 5% CO2 was again performed. Incubation was carried out for 16 hours in the case of the evaluation of T cell activation and for 22 hours in the case of the evaluation of B cell activation. 100 μL Cytofix Buffer (BD Biosciences) was added; holding for 15 minutes at 37° C. was performed; centrifugation for 10 minutes at 1500 rpm was carried out; and the supernatant was removed. 200 μL of Perm buffer II (BD Biosciences) at −20° C. was added; holding for 30 minutes on ice was performed; centrifugation for 10 minutes at 1500 rpm was carried out; and the supernatant was removed. 0.5 mL Stain buffer (BD Biosciences) was added and centrifugation was carried out for 10 minutes at 1500 rpm. 100 μL of a mixed antibody solution was added and incubation was performed for 30 minutes on ice in the dark. The antibody was the 10× dilution with Stain Buffer of the 1:1:1 mixture of PerCP-labeled anti-CD3 antibody (BD Biosciences), AF488-labeled anti-CD20 antibody (BD Biosciences), and PE-labeled anti-CD69 antibody (BD Biosciences). 0.4 mL Stain Buffer was added and the supernatant was removed. […] The CD69-positive signal (average fluorescence intensity) of the CD20-positive CD3-negative cells (B cells) or CD3-positive CD20-negative cells (T cells) was measured. After subtracting the value for the unstimulated sample, the % inhibition with reference to the value for the stimulated control sample was determined. The % inhibition was graphically plotted using Prism (ver. 5.01 J, GraphPad Software) and the IC50 value was determined.

Human CYP2C19, sequence (P33261 whole entry): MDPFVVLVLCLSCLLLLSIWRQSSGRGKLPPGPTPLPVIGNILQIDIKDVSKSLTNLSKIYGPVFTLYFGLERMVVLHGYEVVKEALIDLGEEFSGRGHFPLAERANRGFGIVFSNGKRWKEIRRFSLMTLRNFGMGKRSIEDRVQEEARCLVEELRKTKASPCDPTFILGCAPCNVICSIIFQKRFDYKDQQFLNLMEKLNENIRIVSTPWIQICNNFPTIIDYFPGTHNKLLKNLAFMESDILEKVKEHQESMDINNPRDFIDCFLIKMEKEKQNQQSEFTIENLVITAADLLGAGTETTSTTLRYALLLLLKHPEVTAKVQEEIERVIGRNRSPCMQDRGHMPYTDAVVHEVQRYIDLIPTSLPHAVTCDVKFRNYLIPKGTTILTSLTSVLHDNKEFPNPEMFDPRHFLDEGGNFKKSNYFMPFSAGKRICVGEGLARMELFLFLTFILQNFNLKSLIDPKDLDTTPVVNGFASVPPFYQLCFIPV
Lck, sequence (P06239 whole entry): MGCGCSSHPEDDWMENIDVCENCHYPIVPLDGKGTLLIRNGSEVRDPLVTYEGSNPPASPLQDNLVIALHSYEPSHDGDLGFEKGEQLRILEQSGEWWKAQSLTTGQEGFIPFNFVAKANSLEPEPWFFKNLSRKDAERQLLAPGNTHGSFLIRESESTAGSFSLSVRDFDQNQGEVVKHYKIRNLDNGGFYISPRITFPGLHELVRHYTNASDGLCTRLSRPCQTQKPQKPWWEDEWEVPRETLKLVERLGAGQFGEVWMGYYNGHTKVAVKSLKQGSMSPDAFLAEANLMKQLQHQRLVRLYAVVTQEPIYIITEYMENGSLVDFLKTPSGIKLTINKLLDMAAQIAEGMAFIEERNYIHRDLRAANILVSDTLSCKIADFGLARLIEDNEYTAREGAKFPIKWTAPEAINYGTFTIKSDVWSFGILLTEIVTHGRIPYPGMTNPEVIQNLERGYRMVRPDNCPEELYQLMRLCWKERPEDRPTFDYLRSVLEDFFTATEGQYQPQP

Regarding `C=CC(=O)N1CC(n2c(=O)n(-c3ccc(Oc4ccccc4)cc3)c3c(N)ncnc32)C1` [Example 8, 9-(1-acryloyl-3-azetidinyl)-6-amino-7-(4-phenoxyphenyl)-7,9-dihydro-8H-purin-8-one], the results for the IC50 (on Human CYP2C19; against Btk; in series [2]) were greater than 10000 nM, 4 nM and 21 nM, respectively. For the same compound, the “Residual ratio (%) in the rat liver microsome” value in series [1] is listed as 100%. Also, the “Lck[IC50]/Btk[IC50]” value on Lck came to 80.
